The source of these data is ChEMBL document CHEMBL4673230, “Total Synthesis of Natural Lembehyne C and Investigation of Its Cytotoxic Properties” (J Nat Prod, 2020).

For experiment [1], the system named is Jurkat. In words: Induction of ROS generation in human Jurkat cells assessed as apoptotic cells at 200 nM after 4 hrs by MitoSox Red/annexin V-CF488A staining based flow cytometric analysis (reference value: 3.18%). The class given is functional. Background: In flow cytometry, cells or beads pass a laser one at a time.
The subject of experiment [2] is Jurkat. In words: Induction of ROS generation in human Jurkat cells assessed as mitochondria damaged cells at 200 nM after 4 hrs by MitoSox Red/annexin V-CF488A staining based flow cytometric analysis (reference value: 0%). Format: functional.
Experiment [3] relates to Jurkat. In words: Induction of ROS generation in human Jurkat cells assessed as apoptotic cells with clear mitochondrial damages at 200 nM after 4 hrs by MitoSox Red/annexin V-CF488A staining based flow cytometric analysis (reference value: 0.39%). Format: functional.
The subject of experiment [4] is Jurkat. In words: Induction of ROS generation in human Jurkat cells assessed as living undamaged cells at 200 nM after 2 hrs by MitoSox Red/annexin V-CF488A staining based flow cytometric analysis (reference value: 95.44%). The class given is functional.
Experiment [5] relates to Jurkat. In words: Induction of DNA damage in human Jurkat cells assessed as increase in H2Ax phosphorylation at 2 uM after 2 hrs by Alexa Fluor555 staining based flow cytometric analysis. Format: functional, cell-based.
Experiment [6] relates to Jurkat. In words: Induction of cell cycle arrest in human Jurkat cells assessed as accumulation at sub-G1 phase at 2 uM after 24 hrs by Guava Cell Cycle reagent based flow cytometric analysis relative to control. Format: functional.
Experiment [7] relates to Jurkat. In words: Induction of apoptosis in human Jurkat cells assessed as early apoptotic cells at 200 nM after 24 hrs by Annexin V/7-AAD staining.based flow cytometric analysis relative to control. The class given is functional.
For experiment [8], the system named is Jurkat. In words: Induction of apoptosis in human Jurkat cells assessed as late apoptotic cells after 24 hrs by Annexin V/7-AAD staining.based flow cytometric analysis. Format: functional, cell-based. To be noted: dose 50-400 nM.
For experiment [9], the system named is Jurkat. In words: Induction of DNA damage in human Jurkat cells assessed as increase in H2Ax phosphorylation at 0.2 uM after 2 hrs by Alexa Fluor555 staining based flow cytometric analysis. Format: functional, cell-based.
Experiment [10] has as its system Jurkat. In words: Induction of mitochondrial membrane potential loss in human Jurkat cells assessed as alife cells at 200 nM after 4 hrs by MitoSense Red/7-AAD. flow cytometric analysis (reference value: 98.47%). Format: functional.
Experiment [11] has as its system Jurkat. In words: Induction of mitochondrial membrane potential loss in human Jurkat cells assessed as stressed cells at 200 nM after 4 hrs by MitoSense Red/7-AAD. flow cytometric analysis (reference value: 1.12%). Format: functional.
Experiment [12] relates to Jurkat. In words: Induction of mitochondrial membrane potential loss in human Jurkat cells assessed as death cells at 200 nM after 4 hrs by MitoSense Red/7-AAD. flow cytometric analysis (reference value: 0.22%). The class given is functional.
Experiment [13] deals with Jurkat. In words: Induction of mitochondrial membrane potential loss in human Jurkat cells at 200 nM after 4 hrs by MitoSense Red/7-AAD. flow cytometric analysis. Format: functional, cell-based.

Calls of active or inactive are those of the source. No cut-off for these calls is given here.

As for `CC[C@@]1(O)C(=O)OCc2c1cc1n(c2=O)Cc2cc3ccccc3nc2-1` [CAMPTOTHECIN], the Activity in the experiment with Jurkat [1] turned out to be 68.24%; with Jurkat [2], 0%; in the experiment on Jurkat [3] it was 1.92%; in the experiment with Jurkat [4], 29.83%.
`C#C[C@H](O)CCCCCCCCCCC/C=C\CC/C=C\CCCCCCCCCCCCCCCC`: the outcome with Jurkat [5] was inactive. The Activity was 15.1% with Jurkat [6], 78.6% in the experiment with Jurkat [7] and “Dose-dependent effect” in the experiment on Jurkat [8].
As to `COc1cc([C@@H]2c3cc4c(cc3[C@@H](O[C@@H]3O[C@@H]5CO[C@@H](C)O[C@H]5[C@H](O)[C@H]3O)[C@H]3COC(=O)[C@H]23)OCO4)cc(OC)c1O` [ETOPOSIDE], the outcome in the experiment with Jurkat [9] was Active. The Activity in the experiment on Jurkat [1] is on record as 86.42%; in the experiment with Jurkat [2], 0%; in the experiment with Jurkat [3], 13.1%; in the experiment with Jurkat [4], 0.48%.
As for `CN[C@@H]1C[C@H]2O[C@@](C)([C@@H]1OC)n1c3ccccc3c3c4c(c5c6ccccc6n2c5c31)C(=O)NC4` [STAUROSPORINE], the Activity in the experiment with Jurkat [10] stood at 53.44%; in the experiment on Jurkat [11] it was 30.37%; in the experiment with Jurkat [12], 15.87%. Besides, in the experiment on Jurkat [13], the outcome was Active.
